Assay results published in patent US20040019092A1, “Non-peptide somatostatin receptor ligands” (priority 2001, published 2004).
Several values for one entry are separate records, joined by “and”; a condition that tells them apart may be missing. Equal values may be shown once.

How the values were obtained:
[1] = target: T1, human sst2 receptor sub-type (Homo sapiens, UniProt P30874); experiment: In vitro binding, human sst2 receptor sub-type (SSTR2); conditions: Tables 8/9: Bind SSTR2 nM
T1 construct: host or cells: SRIF receptor expressing cell cultures (general statement only)
Description: The in vitro binding affinities for rat cortex SRIF receptors and the human sst2 receptor sub-type was assessed. Further the in vitro inhibition of the GHRH induced GH secretion in primary cultures of rat pituitary cells as well as the in vivo inhibition of GH secretion in the rat after systemic or enteral application was studied. […] Therefore, the in vivo activities of the compounds in rats with respect to inhibition of growth hormone release was also assessed. Most compounds selected were tested by enteral—intraduodenal (i.d.) application. For determination of the absolute activity and for the calculation of an enteral bioavailability, single subcutaneous (s.c.) application of intravenous (i.v.) infusion was used.

[2] = tested on: GH secretion; experiment: GH secretion in vivo, rat, subcutaneous application, 1 h (basal); conditions: rat, basal GH secretion, 1 h after subcutaneous application
Description: (§1) Animals, anesthesia: Male rats of a Sprague Dawley strain (Ico:OFA-SD, Iffa-Credo, F-Lyon) of 200-300 g body weight were used. They were kept under standardized conditions and were anesthetized with pentobarbital-sodium (Siegfried, CH Zofingen), 60 mg/kg i.p. for subcutaneous and intraduodenal applications. Animals designed for an infusion experiment were anesthetized with urethane (Siegfried, CH Zofingen), 1.2 g/kg i.p.
(§2) Compounds: The compounds were dissolved, optionally with the aid of one or more of the following adjuncts:
(§3) Stock solutions of the compounds were prepared in water with the addition of the necessary adjunct(s). Further dilutions were prepared allowing 5 mL/kg for subcutaneous application, 2 mL for intraduodenal (i.d.) application or 4.5 mL/kg for intravenous infusion. The solutions for the intravenous application/infusion were made isotonic by addition of glucose to a final concentration of 5%.
(§4) Applications were made, or, in the case of infusion, started, approximately 10 minutes after induction of anesthesia. No further treatment followed subcutaneous or intraduodenal application. Ten, twenty-five and fifty-five minutes after start of the intravenous infusion the GH secretion was stimulated with repeated intravenous injections of the potent GHRH analog, D-Ala2 GHRH1-29NH2, 1 μg/kg.
(§5) One hour after subcutaneous or intraduodenal application of the compounds, blood was collected from the trunk after decapitation. In the case of application by infusion, 5 minutes after each application of GHRH, a blood sample of 0.8 mL was taken from a V. jugularis and mixed with EDTA (Eppendorf tubes TOM14, Milian, CH Geneva). The blood samples were kept on ice and spun in a cooled centrifuge. The serum or plasma was separated and frozen.
(§6) Statistics: In each experiment, 4-5 animals were used per dose, with 6 to 8 animals as the control group that received the vehicle. The GH serum/plasma levels were averaged, the mean of the treated groups expressed in percent of the control group and the ID50-value for the inhibition of the secretion was determined graphically (log-probit) for each experiment. In most experiments with enteral (intraduodenal) application only 1 dose, 10 mg/kg, was given. […] Only inhibitions between 20 and 80% were considered reliable.
(§7) Two to four experiments were performed. In the case of proper dose response curves, allowing the determination of an ID50 values were averaged logarithmically. In the cases of single dose-experiments, the GH value in percent of control were averaged logarithmically and the ID50 for this value was taken from the table. ID50 values determined at the different time points during the infusion were averaged and this value was included in the tables.

[3] = tested on: GH secretion; experiment: GH secretion in vivo, rat, intraduodenal (enteral) application, 1 h (basal); conditions: for GH vivo i.d. 1 h ID50: basal GH secretion, 1 h after intraduodenal application, mostly approximate ID50 from single 10 mg/kg dose, Ø = no effect at this dose, > = extrapolated value
Description: as §1, §2, §3, §4, §5, §6, §7

[4] = tested on: GHRH stimulated GH secretion; experiment: GH secretion in vivo, rat, intravenous infusion with repeated GHRH stimulation; conditions: for INFUS. + GHRH ID50 MEAN: Table 4, mean of infusion time points; for INFUS. + GHRH ID50 15′ / INFUS. + GHRH ID50 30′ / INFUS. + GHRH ID50 60′: Table 4, urethan; for GH vivo Inf + GHRH ID50 (mean of time points): urethane, i.v. infusion, GHRH stimulated
Description: as §1, §3, §4, §5, §6, §7

[5] = tested on: GHRH stimulated GH secretion; experiment: GH secretion, rat in urethan anesthesia, intraduodenal + repeated GHRH stimulation; format: in vivo
Text: No further treatment followed subcutaneous or intraduodenal application. […] This value has been determined in a total of four independent experiments. […] However, in further studies compound 47 has also been tested by the enteral route of administration after repeated stimulation of the GH secretion by GHRH. […] With most of these selected compounds additional in vivo experiments in other models (intraduodenal application followed by repeated stimulation of the GH secretion by GHRH, oral application by gavage of unanesthetized, estradiol primed rats) were performed. Table 4 summarizes data obtained for the inhibition of the stimulated GH secretion after subcutaneous, intraduodenal and intravenous application and the inhibitory effects obtained for different time points during intravenous infusion of selected hydantoins. […] [table]

[6] = tested on: GH secretion; experiment: Unanesthetized estradiol primed male rats, oral by gavage: GH; format: in vivo, rat; conditions: estradiol implant male rats, oral by gavage, 1 hour
Description: The inhibitory effect of the compounds on GH release may also be examined after oral application to male rats with oestradiol implants. This test is carried out as follows.
A loop (length 50 mmØ3 mm) of silastic with 50 mg of oestradiol is implanted under the dorsal skin of anaesthetized male OFA rats that have a weight of ca. 300 g. At various times (1 to 6 months later), these animals, in a fasted state, are used repeatedly for tests. The test substances are active in this test at doses from 0.1 to 5 mg/kg, when GH level in the blood serum is determined by radio-immunoassay 1 and 2 hours after oral administration.
(§8) Table 5 summarizes the results obtained in the estradiol primed male rats that received the compounds orally by gavage. These rats have stabilized elevated GH plasma levels as well as increased prolactin levels. In contrast to normal untreated rats, who's prolactin secretion is not sensitive to the inhibitory effect of somatostain, in these rats the prolactin secretion is inhibited to a similar degree as the GH secretion. Therefore, the inhibitory effect can be measured on 2 different parameters, GH and prolactin. The mean enteral absorption and activity of the respective compounds are shown.

[7] = tested on: prolactin secretion; experiment: Unanesthetized estradiol primed male rats, oral by gavage: prolactin; format: in vivo, rat; conditions: estradiol implant male rats, oral by gavage, 1 hour; ø = no effect at this dose
Text: as §8

[8] = tested on: GHRH induced GH secretion in primary cultures of rat pituitary cells; experiment: In vitro inhibition of GHRH induced GH secretion (GH vitro +GHRH); format: cell-based
[9] = tested on: GHRH stimulated GH secretion; experiment: GH secretion, rat in urethan anesthesia, subcutaneous + repeated GHRH stimulation; format: in vivo
Description: as §4
With most of these selected compounds additional in vivo experiments in other models (intraduodenal application followed by repeated stimulation of the GH secretion by GHRH, oral application by gavage of unanesthetized, estradiol primed rats) were performed. Table 4 summarizes data obtained for the inhibition of the stimulated GH secretion after subcutaneous, intraduodenal and intravenous application and the inhibitory effects obtained for different time points during intravenous infusion of selected hydantoins.

[10] = target: SS1 (Rattus norvegicus, UniProt P30680); experiment: SS-1 binding (Bind SS1 D.H.)
SS1, sequence (P30680 whole entry): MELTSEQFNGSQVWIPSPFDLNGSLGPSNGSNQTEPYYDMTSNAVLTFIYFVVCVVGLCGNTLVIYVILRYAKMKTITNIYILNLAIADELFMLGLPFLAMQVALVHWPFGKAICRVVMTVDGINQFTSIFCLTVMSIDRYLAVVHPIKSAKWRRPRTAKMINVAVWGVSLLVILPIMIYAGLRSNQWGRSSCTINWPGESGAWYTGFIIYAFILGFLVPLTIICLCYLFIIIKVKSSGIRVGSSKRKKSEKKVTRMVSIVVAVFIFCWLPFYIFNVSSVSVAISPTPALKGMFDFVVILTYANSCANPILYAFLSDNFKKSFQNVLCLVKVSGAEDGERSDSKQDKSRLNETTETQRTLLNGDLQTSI

T1 sequence (P30874 whole entry): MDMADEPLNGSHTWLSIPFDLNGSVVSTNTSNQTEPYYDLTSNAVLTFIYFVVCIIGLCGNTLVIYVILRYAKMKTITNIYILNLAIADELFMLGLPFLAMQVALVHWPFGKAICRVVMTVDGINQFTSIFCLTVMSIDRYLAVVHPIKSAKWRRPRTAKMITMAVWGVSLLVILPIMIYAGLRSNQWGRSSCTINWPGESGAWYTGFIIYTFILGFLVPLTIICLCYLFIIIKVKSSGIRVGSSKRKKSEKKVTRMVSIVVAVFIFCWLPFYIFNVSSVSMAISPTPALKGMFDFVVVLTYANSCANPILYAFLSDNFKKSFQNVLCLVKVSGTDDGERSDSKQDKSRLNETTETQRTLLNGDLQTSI

Row | SMILES | IC50 [1] | GH vivo s.c. 1 h ID50 [2] | GH vivo i.d. 1 h ID50 [3] | INFUS. + GHRH ID50 MEAN [4] | INFUS. + GHRH ID50 15′ ([4]; 15′ of infusion) | INFUS. + GHRH ID50 30′ ([4]; 30′ of infusion) | INFUS. + GHRH ID50 60′ ([4]; 60′ of infusion) | GH vivo Inf + GHRH ID50 (mean of time points) [4] | GH 1 H ID50 [6] | MEAN ID50 (GH and prolactin) [6] | PROLACT 1 H ID50 [7] | other results
1 | Cc1cccc2c(CC3C(=O)N(CCCCCN)C(=O)N3S(=O)(=O)c3ccc(Oc4ccc(O)c(Cl)c4)c(C(=O)N(C)C)c3)c[nH]c12 (single isomer, unassigned; (+)) [(+)-43] | 0.18 nM | 3.0 µg/kg | 4800 µg/kg | 1.68 µg/kg | 2.28 µg/kg | 1.54 µg/kg | 1.35 µg/kg | 1.68 µg/kg/h |  |  |  | GH vivo s.c. 1 h ID50 ([2]; listed as (+)−43): 3.00 µg/kg; GH vivo s.c. 1 h ID50 ([2]; listed as (+)−43 ch): 3.00 µg/kg
2 | C[C@@H](O)[C@@H]1NC(=O)[C@H](CCCCN)NC(=O)[C@@H](Cc2c[nH]c3ccccc23)NC(=O)[C@H](Cc2ccccc2)NC(=O)[C@@H](NC(=O)[C@H](N)Cc2ccccc2)CSSC[C@@H](C(=O)N[C@H](CO)[C@@H](C)O)NC1=O [Octreotride, Octreotide, reference compound] |  | 0.13 µg/kg | 125 µg/kg | 0.12 µg/kg | 0.16 µg/kg | 0.11 µg/kg | 0.10 µg/kg |  | 440 µg/kg | 663 µg/kg | 998 µg/kg | IC50 [8]: 1.3 nM; GH, Ur Inf15′ +GHRH ([4]; Tables 8/9, urethane, 15′ of infusion): 0.124 µg/kg/h; GH, UR Inf30′ +GHRH ([4]; Tables 8/9, urethane, 30′ of infusion): 0.082 µg/kg/h; GH, UR Inf60′ +GHRH ([4]; Tables 8/9, urethane, 60′ of infusion): 0.085 µg/kg/h; GH vivo Inf + GHRH ID50 (mean of time points) ([4]; listed as Octreotride ac): 0.12 µg/kg/h and 0.096 µg/kg/h; GH vivo Inf + GHRH ID50 (mean of time points) ([4]; listed as octreotride ac): 0.096 µg/kg/h; SUBCUTANEOUS + GHRH ID50 15′ ([9]; 15′): 0.15 µg/kg; SUBCUTANEOUS + GHRH ID50 30′ ([9]; 30′): 0.15 µg/kg; SUBCUTANEOUS + GHRH ID50 60′ ([9]; 60′): 0.26 µg/kg; INTRADUODENAL + GHRH ID50 15′ ([5]; urethan, 15′, ø = no effect at this dose): 24.2 µg/kg; INTRADUODENAL + GHRH ID50 30′ ([5]; urethan, 30′): 16.6 µg/kg; INTRADUODENAL + GHRH ID50 60′ ([5]; urethan, 60′): 26.8 µg/kg; INTRADUODENAL + GHRH ID50 120′ ([5]; urethan, 120′, ø = no effect at this dose): 82.0 µg/kg; Bind SS1 D.H. [10]: 0.30 nM
3 | C[C@H](N)C(=O)NCC(=O)N[C@H]1CSSC[C@@H](C(=O)O)NC(=O)[C@H](CO)NC(=O)[C@H]([C@@H](C)O)NC(=O)[C@H](Cc2ccccc2)NC(=O)[C@H]([C@@H](C)O)NC(=O)[C@H](CCCCN)NC(=O)[C@H](Cc2c[nH]c3ccccc23)NC(=O)[C@H](Cc2ccccc2)NC(=O)[C@H](Cc2ccccc2)NC(=O)[C@H](CC(N)=O)NC(=O)[C@H](CCCCN)NC1=O [SRIF14, somatostatin 14, reference compound] |  |  |  | 3.90 µg/kg | 6.00 µg/kg | 3.35 µg/kg | 2.90 µg/kg |  |  |  |  | 

Further lines, with some results ahead:

Row | IC50 [1] | SMILES | GH vivo s.c. 1 h ID50 [2] | GH vivo i.d. 1 h ID50 [3] | INFUS. + GHRH ID50 MEAN [4] | INFUS. + GHRH ID50 15′ ([4]; 15′ of infusion) | INFUS. + GHRH ID50 30′ ([4]; 30′ of infusion) | INFUS. + GHRH ID50 60′ ([4]; 60′ of infusion) | GH vivo Inf + GHRH ID50 (mean of time points) [4] | GH 1 H ID50 [6] | MEAN ID50 (GH and prolactin) [6] | PROLACT 1 H ID50 [7] | other results
4 | 0.38 nM | Cc1cccc2c(CC3C(=O)N(CCCCC(C)(C)N)C(=O)N3S(=O)(=O)c3ccc(Oc4ccc(O)c(Cl)c4)c(C(=O)N(C)C)c3)c[nH]c12 (stereo not shown) [Compound 47] | 10.00 µg/kg | ˜454 μg/kg |  |  |  |  | 8.10 µg/kg/h |  |  |  | enteral ID50 (GH secretion) ([3]; enteral (intraduodenal) application): 500 µg/kg; enteral bioavailability (from ID50 ratio) ([3]; intraduodenal 1 hour vs parenteral ID50): 1.8%; bioavailability calculated in the GHRH stimulated enteral model [5]: 0.3%; enteral ID50 after repeated stimulation of the GH secretion by GHRH ([5]; 1 hour): ~2600 µg/kg
5 | 2.5 nM | CN(C)C(=O)c1cc(S(=O)(=O)N2C(=O)N(CCCCCN)C(=O)C2Cc2c[nH]c3ccccc23)ccc1Oc1ccc(OC(=O)C(N)CCCCN)c(Cl)c1 (stereo not shown) [Compound 48] |  | > 15000 µg/kg |  |  |  |  | 32.00 µg/kg/h | 11000 µg/kg | 9950 µg/kg | 9000 µg/kg | GH inhibition by the enteral route ([3]; 10 mg/kg enteral): exhibited inhibition
